A word on the pIC50: it is the IC50 on a negative log10 scale, so that one unit is a factor of ten. A low value points to a high IC50.

Assay [1] concerns PKC. As to the kind of experiment: PKC in vivo target inhibition assay (pleckstrin phosphorylation in blood cells). More on the design: species or system mouse. The conditions noted are these: male ICR mice, oral gavage, 2 h after treatment. As to the method:
The purpose of this assay is to evaluate the effects of in vivo administration of a test compound on PKC substrate phosphorylation in blood cells.
Pleckstrin is one of the PKC protein substrates and is primarily expressed in platelets and peripheral blood mononuclear cells (PBMC). Pleckstrin phosphorylation is proportional to PKC activity. The phosphorylation state of the pleckstrin protein in purified platelets and PBMC from mouse blood is analyzed via Western blotting using a primary antibody specific for phosphorylated PKC substrates. This antibody recognizes multiple phosphorylated PKC substrates that include, but are not limited to p-pleckstrin. The p-pleckstrin band is identified based on its molecular weight.
Male ICR mice (Charles River) are dosed by oral gavage with a test compound homogenized in 1% hydroxethylcellulose/0.25% TWEEN® 80, at a concentration range of 0.3-3 mg/mL, depending on dose; thus dosing volume is 10 ml/kg body weight. Staurosporine, dissolved in the same vehicle, may be used as a positive control to verify that the assay is functioning. […]
10% SDS-PAGE is conducted on the cell lysates (30 μg protein loaded per lane), with 130 V for 90 min. […] Intensity of near-infrared fluorescence is proportional to the level of PKC substrate phosphorylation. It is quantitated with ODYSSEY® software. […]

Assay [2] concerns the target human PKCβ2 (Homo sapiens, UniProt P05771). As to the kind of experiment: PKC isoforms based HTRF KinEASE-STK assay, PKCβ2. As to conditions: 25 μM ATP in substrate mix, 30 min. Format: biochemical. The text has this: The purpose of this assay is to evaluate the inhibitory activity of compounds on various PKC isoforms. It has been reported that perturbations in vascular cell homeostasis caused by different PKC isoforms (PKC-α, β1/2, and PKC-δ) are linked to the development of pathologies affecting large vessel (atherosclerosis, cardiomyopathy) and small vessel (retinopathy, nephropathy, and neuropathy) complications. Geraldes, P. and King, G. L., “Activation of Protein Kinase C Isoforms and Its Impact on Diabetic Complications”, Cir.
Effects of a test compound on the kinase activity of PKCα, β2, δ, ε, ι, and ζ, are determined using a HTRF KINEASE™-STK assay kit (Cisbio) in accordance with the protocol provided by the vendor. It is a general method for measuring Serine/Threonine kinase activities using kinase substrates and a universal detection system. In the current protocol, biotinilated STK1provided in the assay kit is used as the substrate that can be phosphorylated by any PKC isoform. The HTRF KINEASE™-STK assay kit format involves the two steps (Enzymatic step and Detection step) described below. First, the kinase phosphorylates the substrate in the presence of ATP. Second, the detection reagents provided in the assay kit recognize the phosphorylated substrate.

pIC50: −log10 of the molar value.

Sequence of human PKCβ2 (P05771 1-673 isoform P05771-2): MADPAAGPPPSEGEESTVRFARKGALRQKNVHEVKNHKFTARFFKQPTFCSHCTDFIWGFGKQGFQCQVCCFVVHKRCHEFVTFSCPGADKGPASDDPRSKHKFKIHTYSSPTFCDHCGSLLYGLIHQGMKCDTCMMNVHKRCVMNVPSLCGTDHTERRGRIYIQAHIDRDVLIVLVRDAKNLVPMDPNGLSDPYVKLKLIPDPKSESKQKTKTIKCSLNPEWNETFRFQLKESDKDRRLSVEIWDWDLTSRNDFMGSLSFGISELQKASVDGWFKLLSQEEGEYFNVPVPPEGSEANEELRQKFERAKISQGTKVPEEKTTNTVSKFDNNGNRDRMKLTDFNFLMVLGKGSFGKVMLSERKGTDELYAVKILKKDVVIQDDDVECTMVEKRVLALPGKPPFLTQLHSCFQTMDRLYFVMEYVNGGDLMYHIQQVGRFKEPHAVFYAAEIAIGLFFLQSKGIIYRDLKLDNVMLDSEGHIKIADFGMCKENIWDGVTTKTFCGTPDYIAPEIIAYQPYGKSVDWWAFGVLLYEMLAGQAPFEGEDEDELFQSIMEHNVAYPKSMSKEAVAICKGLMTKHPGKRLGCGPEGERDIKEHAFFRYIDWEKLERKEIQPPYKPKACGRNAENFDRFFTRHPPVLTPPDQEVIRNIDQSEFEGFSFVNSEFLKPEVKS

On to `C[C@@H]1CN(C(=O)c2cc(-c3c(F)cc(O)cc3F)cc3cnsc23)C[C@H](C)N1.Cl` [Example 2, 4-(7-{[(3R,5 S)-3,5-DIMETHYLPIPERAZIN-1-YL]CARBONYL}-1,2-BENZOTHIAZOL-5-YL)-3,5-DIFLUOROPHENOL HYDROCHLORIDE], for which the “ID50, pleckstrin phosphorylation, PBMCs” value in assay [1] (PBMCs) is listed as “about 18.03 mg/kg”. In addition, the “ID50, pleckstrin phosphorylation, platelets” value in assay [1] (platelets) is “about 11.85 mg/kg”. Further, the pIC50 in assay [2] is roughly 7.29.

The record behind these values is US20170246166A1, “1,2-BENZOTHIAZOLE COMPOUNDS FOR THE TREATMENT OF KIDNEY DISORDERS” (priority 2014, published 2017).
